Measurements published in PMC4151706 (Journal of the American Chemical Society, 2014).

Target: HIV-1 protease WT subtype C (Human immunodeficiency virus type 1 group M subtype C, UniProt O12158)
Conditions: protease variant subtype C

Chain of HIV-1 protease WT subtype C (O12158 485-583): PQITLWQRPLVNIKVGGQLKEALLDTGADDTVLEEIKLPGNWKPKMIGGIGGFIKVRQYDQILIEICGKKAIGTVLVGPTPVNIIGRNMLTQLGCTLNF

CC(C)CN(C[C@@H](O)[C@H](Cc1ccccc1)NC(=O)O[C@H]1CO[C@H]2OCC[C@H]21)S(=O)(=O)c1ccc(N)cc1 [DRV, Darunavir]
Ki: 5 ± 2 pM
